What all share (type): in vivo
The test system of experiment [1] is TGF-β production and type I & III collagen accumulation in rat UUO model. Kind of experiment: Rat UUO model, immunohistochemistry of TGF-β and type I & III collagen. The note with it: kidney of UUO rats. Here is the method: Similar to the example 8, Kidney fibrosis was induced by Unilateral Ureteral Obstruction. And the animal experiments were performed to investigate whether AKF-PD has any effect on TGF-β production and collagen accumulation. These are two known factors for fibrotic lesion.
As shown by FIG. 1, sections A-C were immunohistochemically stained with specific antibody against TGF-β with brown color indicating TGF-β protein expression in kidney cells. All sections were also counterstained lightly with hematoxylin for viewing non-TGF-β stained cells.
Also shown by FIG. 2, type I and III collagen were analyzed by immunohistochemistry. The typical fibrotic fiber was viewed as brown color. There are a […] accumulation of both type I (B) and type III (E) collagen on the fibrotic kidney of UUO model. […] Reduced collagen level can be interpreted as the reduced ECM.

The subject of experiment [2] is Kun Ming (KM) mice infected with Schistosoma miracidium. Description: Schistosomial liver fibrosis in Kun Ming mice, egg granuloma area and immunohistology. The following applies: for Schistosomo Egg Granuloma Area, Mean: all after Pyquiton 650 mg/kg 4 days, AKF-PD 500 mg/kg daily gavage, γ-interferon 50,000 unit daily i.m., 8 weeks. An excerpt:
Kun Ming (KM) mice were infected with Schistosoma miracidium to induce schistosomial liver fibrosis. […] Ten Schistosoma miracidium were placed on shaved abdominal skin of each mouse for infection. […] Five hundred mg/kg AKF-PD were given daily by gavage to the disinfected mice of infected/AKF-PD group. The disinfected mice were given (i.m.) 50,000 unit γ-interferon daily. […] Drug or normal saline treatment was continued for 8 weeks. All mice were sacrificed one week after discontinue of drug treatment, and the left lobe of liver from each mouse was taken for pathological examination. Examination of HE-stained slices of liver tissue were carried out as follows. In general, after 16 weeks of Schistosoma miracidia infection, the area of schistosomo egg granuloma would directly correlate to the severity of liver fibrosis. Therefore, the area of schistosomo egg granuloma was measured using a high-resolution, color pathology graphic analyzer (HPIAS-1000). The sum of area of 5 granuloma with abundant eggs and the sum of area of 5 granuloma with few eggs were measured for each slice.

For experiment [3], the system named is Sprague-Dawley rats, Bleomycin-induced pulmonary fibrosis. Kind of experiment: Bleomycin-induced rat pulmonary fibrosis, severity of fibrotic lesions. The note with it: AKF-PD 500 mg/kg daily by gavage; 27 days post surgery; total of 8 rats. Here is the method: Bleomycin-induced rat pulmonary fibrosis is selected for testing 5-methyl-1-(3′-fluorophenyl)-2(1H)-pyridone (AKF-PD). Male Sprague-Dawley rats (6-8 weeks old, 180 g˜220 g) were cared under regular condition. The animals were randomly divided into 3 groups: sham surgical group, model disease group, and disease/AKF-PD group. Six mg/kg/4 ml of Bleomycin was slowly infused into the trachea of rats in the model disease and disease/AKF-PD groups. Same amount of normal saline was infused into the trachea of rats in the sham surgical group.
Five hundred mg/kg AKF-PD was directly administrated by gavage to rats in the disease/AKF-PD group daily from 2 days prior to operation through 27 days after operation. Normal saline was used for all animals in both disease and sham surgical groups. The animals were sacrificed at 27 days post surgery and the lung tissues were removed for pathological sample preparation. The HE-stained lung tissues from each rat were examined under microscope to determine the frequency and severity of fibrotic lesion. Evaluation of lung tissue fibrosis was carried out according to the method of Szapiel et al., Bleomycin-induced interstitial pulmonary disease in the nude, athymic mouse. Am. Rev. Respir. Dis. 120:893-9(1979).

The test system of experiment [4] is SD rat, Unilateral Ureteral Obstruction (UUO) model. Description: Rat UUO model of renal interstitial fibrosis, histological score (Example 8). The following applies: UUO rats; AKF-PD 500 mg/kg/d, Enalapril 10 mg/kg/d by gavage; 14 days post surgery; Radford's method. How it is done:
Anti-fibrotic effect of AKF-PD was tested on a SD rat model for renal interstitial fibrosis induced by surgical ligation of single side ureter (Unilateral Ureteral Obstruction, UUO, model). Eight weeks old male SD rats (180 g˜220 g) were randomly divided into sham surgical group, disease model group, Enalapril (10 mg/kg/d) group and AKF-PD (500 mg/kg/d) group. […] The animals of the sham surgical group experienced the same surgical procedure except the ligation step. The respective drugs were administrated by gavage to rats in the groups of Enalapril and AKF-PD from one day prior to the procedure to 14 days post surgical procedure. Normal saline was administrated in a similar fashion to the rats in the groups of disease model and sham surgical. The animals were sacrificed 14 days after surgical procedure and their left kidney were removed for pathological (HE staining) examination. Histological scoring for interstitial compartment was done according to Radford's method (Radford et al., Predicting renal outcome in IgA nephropathy. J. Am. Soc. Nephrol. 8: 199-207(1997)).

Setting [5] is: compared with pyquiton and Interferon-γ treated.

Each structure is given as a SMILES string.

As to `Cc1ccc(=O)n(-c2cccc(F)c2)c1` [AKF-PD, 1-(3′-fluorophenyl)-5-methyl-2(1H)-pyridone], in experiment [1], the “TGF-β production (immunohistochemistry, FIG. 1)” value was “significantly reduced TGF-β production”; the “type I and III collagen accumulation or production (immunohistochemistry, FIG. 2)” value was “significantly blocks type I and III collagen accumulation or production”. For the same compound, in experiment [2] (setting [5]), the “fibrotic nodule (immunohistological staining, FIG. 3)” value is on record as “much reduced fibrotic nodule” and the “type I collagen accumulation (immunohistological staining, FIG. 4)” value is given as “much less type I collagen accumulation”. Further, the “Schistosomo Egg Granuloma Area, Mean” value in experiment [2] (granuloma with abundant eggs) is 80155.11 μm^2. For the same compound, in experiment [2] (granuloma with few eggs), the “Schistosomo Egg Granuloma Area, Mean” value amounted to 30266.68 μm^2. In experiment [3], the “Number of rats with Severity of Fibrosis: Milder” value is given as 6, the “Number of rats with Severity of Fibrosis: Moderate” value is reported as 1, the “Number of rats with Severity of Fibrosis: None” value is recorded as 0 and the “Number of rats with Severity of Fibrosis: Sever” value came to 1. In addition, the “Histological Score for Interstitial Compartment” value in experiment [4] was found to be 6.43 ± 1.28.

For the origin of these results see patent US20090005424A9, “Composition and Method for Treating Fibrotic Diseases” (priority 2005, published 2009).
